Article PMC11593696, “Discovery of Potent Benzothiazole Inhibitors of Oxidoreductase NQO2, a Target for Inflammation and Cancer” (International Journal of Molecular Sciences, 2024)
Read-outs that look alike come from different tables or passages of the source. Values belong to the molecule of their own block, whether it stands above or below them.

Legend:
recombinant human NQO2 = target: T1, recombinant human NQO2 (Homo sapiens, UniProt P16083); test: NQO2 enzyme inhibition assay (DCPIP substrate, NRH or EPR co-substrate); assay type: biochemical; details: for reduction in potency relative to compound 40: removal of the 4-OMe or the 5-OMe from 40
T1 sequence (P16083 1-231): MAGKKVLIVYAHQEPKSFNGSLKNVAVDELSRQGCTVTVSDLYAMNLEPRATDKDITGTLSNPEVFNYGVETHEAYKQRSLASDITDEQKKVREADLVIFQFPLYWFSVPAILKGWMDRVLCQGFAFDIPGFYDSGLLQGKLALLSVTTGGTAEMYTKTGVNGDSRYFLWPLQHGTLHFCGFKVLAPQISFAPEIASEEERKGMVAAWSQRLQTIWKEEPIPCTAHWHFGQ
Description: In this assay, dichlorophenolindophenol (DCPIP) was used as a substrate for NQO2. NRH (SI or EP0152R) was used as the co-substrate for the enzyme.
The NQO2 enzyme assay was carried out using a […] GO spectrophotometer by measuring the absorbance of DCPIP at 600 nm. NRH [31] or EPR were used as co-substrates. The experiment was performed using a 96-well plate with a […] final volume using phosphate buffer (50 mM, pH 7.4). The final concentrations were DCPIP 40 µM and NRH or EPR 200 µM. The final enzyme concentration was 100 ng. The assay was performed at 37 °C and initiated through the addition of NQO2. The initial rates of the enzyme reactions were calculated from the curve by taking the initial slopes of the reactions using the formula (ΔAb/ΔTime). The assay of inhibitors was carried out using the same assay conditions. […] Each experiment was performed in triplicate. Rates were converted to the percentage of enzyme activity, and IC50 values were calculated using GraphPad Prism 7.03 software using the non-linear regression function. IC50 values were determined as a 50% decrease in NQO2 activity.

[1] = DCPIP substrate, NRH co-substrate, read-out: IC50 for inhibition of NQO2
[2] = inhibition of NQO2, DCPIP 40 µM, NRH or EPR 200 µM, phosphate buffer pH 7.4, 37 °C, triplicate, read-out: IC50 (µM) ± SD

Structure (SMILES): COc1cc(OC)cc(-c2nc3ccc(C(F)(F)F)cc3s2)c1 [Compound 5, 2-(3,5-Dimethoxyphenyl)-6-(trifluoromethyl)benzo[d]thiazole]
IC50 (recombinant human NQO2; [1]): 0.123 µM
IC50 (recombinant human NQO2; [2]): 0.123 ± 0.029 µM

Structure (SMILES): COc1cc(OC)cc(-c2nc3ccc(Cl)cc3s2)c1 [Compound 6, 6-Chloro-2-(3,5-dimethoxyphenyl)benzo[d]thiazole]
IC50 (recombinant human NQO2; [2]): 82.93 ± 0.04 µM
melting point: 150 to 151 °C

Structure (SMILES): COc1cc(OC)cc(-c2nc3ccc(C#N)cc3s2)c1 [Compound 7, 2-(3,5-Dimethoxyphenyl)benzo[d]thiazole-6-carbonitrile]
IC50 (recombinant human NQO2; [2]): > 100 µM
melting point: 222 to 224 °C

Structure (SMILES): COc1cc(OC)cc(-c2nc3ccc([N+](=O)[O-])cc3s2)c1 [Compound 10, 2-(3,5-Dimethoxyphenyl)-6-nitrobenzo[d]thiazole]
IC50 (recombinant human NQO2; [2]): 93.44 ± 0.02 µM
melting point: 199 to 200 °C

Structure (SMILES): COc1cc(OC)cc(-c2nc3ccc(NC(C)=O)cc3s2)c1 [Compound 12, N-(2-(3,5-Dimethoxyphenyl)benzo[d]thiazol-6-yl)acetamide]
IC50 (recombinant human NQO2; [1]): 0.605 µM
IC50 (recombinant human NQO2; [2]): 0.605 ± 0.06 µM
melting point: 179 to 181 °C

Structure (SMILES): COc1cc(OC)cc(-c2nc3ccc(NC(=O)c4ccccc4)cc3s2)c1 [Compound 13, N-(2-(3,5-Dimethoxyphenyl)benzo[d]thiazol-6-yl)benzamide]
inhibition of NQO2 enzymatic activity, in words (recombinant human NQO2): further loss of activity
IC50 (recombinant human NQO2; [2]): 8.44 ± 0.03 µM
melting point: 138 to 140 °C

Structure (SMILES): COc1cc(OC)cc(C(=O)Nc2ccc3nc(-c4cc(OC)cc(OC)c4)sc3c2)c1 [Compound 14, N-(2-(3,5-Dimethoxyphenyl)benzo[d]thiazol-6-yl)-3,5-dimethoxybenzamide]
inhibition of NQO2 enzymatic activity, in words (recombinant human NQO2): further loss of activity
IC50 (recombinant human NQO2; [2]): 1.36 ± 0.06 µM
melting point: 159 to 162 °C

Structure (SMILES): Oc1cc(O)cc(-c2nc3ccc(O)cc3s2)c1 [Compound 15, 6-Hydroxy-2-(3,5-dihydroxyphenyl)benzo[d]thiazole]
IC50 (recombinant human NQO2; [1]): 0.025 µM
IC50 (recombinant human NQO2; [2]): 0.025 ± 0.003 µM

Structure (SMILES): COc1ccc(-c2nc3ccc(C(F)(F)F)cc3s2)c(OC)c1 [Compound 18, 2-(2,4-Dimethoxyphenyl)-6-(trifluoromethyl)benzo[d]thiazole]
IC50 (recombinant human NQO2; [2]): 4.52 ± 0.04 µM

Structure (SMILES): COc1ccc(-c2nc3ccc(Cl)cc3s2)c(OC)c1 [Compound 19, 6-Chloro-2-(2,4-dimethoxyphenyl)benzo[d]thiazole]
IC50 (recombinant human NQO2; [1]): 33.5 µM
IC50 (recombinant human NQO2; [2]): 33.55 ± 0.02 µM
melting point: 170 to 171 °C

Structure (SMILES): COc1ccc(-c2nc3ccc(C#N)cc3s2)c(OC)c1 [Compound 20, 2-(2,4-Dimethoxyphenyl)benzo[d]thiazole-6-carbonitrile]
IC50 (recombinant human NQO2; [2]): > 100 µM
melting point: 235 to 237 °C

Structure (SMILES): COc1ccc(-c2nc3ccc(F)cc3s2)c(OC)c1 [Compound 21, 2-(2,4-Dimethoxyphenyl)-6-fluorobenzo[d]thiazole]
IC50 (recombinant human NQO2; [2]): 3.51 ± 0.08 µM
melting point: 157 to 158 °C

Structure (SMILES): COc1ccc(OC)c(-c2nc3ccc(C(F)(F)F)cc3s2)c1 [Compound 26, 2-(2,5-Dimethoxyphenyl)-6-(trifluoromethyl)benzo[d]thiazole]
IC50 (recombinant human NQO2; [1]): 2.77 µM
IC50 (recombinant human NQO2; [2]): 2.77 ± 0.01 µM

Structure (SMILES): COc1ccc(OC)c(-c2nc3ccc(Cl)cc3s2)c1 [Compound 27, 6-Chloro-2-(2,5-dimethoxyphenyl)benzo[d]thiazole]
IC50 (recombinant human NQO2; [1]): 1.18 µM
IC50 (recombinant human NQO2; [2]): 1.18 ± 0.002 µM
melting point: 220 to 222 °C

Structure (SMILES): COc1ccc(OC)c(-c2nc3ccc(C#N)cc3s2)c1 [Compound 28, 2-(2,5-Dimethoxyphenyl)benzo[d]thiazole-6-carbonitrile]
IC50 (recombinant human NQO2; [2]): > 100 µM
melting point: 182 to 184 °C

Structure (SMILES): COc1ccc(OC)c(-c2nc3ccc(F)cc3s2)c1 [Compound 29, 2-(2,5-Dimethoxyphenyl)-6-fluorobenzo[d]thiazole]
IC50 (recombinant human NQO2; [1]): 2.06 µM
IC50 (recombinant human NQO2; [2]): 2.06 ± 0.01 µM
melting point: 105 to 107 °C

Structure (SMILES): Fc1ccc(-c2nc3ccc(F)cc3s2)cc1 [Compound 56, 6-Fluoro-2-(4-fluorophenyl)benzo[d]thiazole]
IC50 (recombinant human NQO2; [1]): > 100 µM
IC50 (recombinant human NQO2; [2]): > 100 µM

Structure (SMILES): COc1ccc2nc(-c3cc(F)cc(F)c3)sc2c1 [Compound 57, 2-(3,5-Difluorophenyl)-6-methoxybenzo[d]thiazole]
IC50 (recombinant human NQO2; [1]): 12 µM
IC50 (recombinant human NQO2; [2]): 11.78 ± 0.02 µM

Structure (SMILES): Fc1cc(F)cc(-c2nc3ccc(F)cc3s2)c1 [Compound 58, 2-(3,5-Difluorophenyl)-6-fluorobenzo[d]thiazole]
inhibition of NQO2 enzymatic activity, in words (recombinant human NQO2): loss of inhibition of NQO2 activity
IC50 (recombinant human NQO2; [2]): > 100 µM

Now from value to molecule:

IC50 (recombinant human NQO2; [1]): 0.108 µM
IC50 (recombinant human NQO2; [2]): 0.108 ± 0.012 µM
reduction in potency relative to compound 40 (recombinant human NQO2): 2 fold
melting point: 121 to 123 °C
Structure (SMILES): COc1cc(OC)cc(-c2nc3ccc(OC)cc3s2)c1 [Compound 3, 2-(3,5-Dimethoxyphenyl)-6-methoxybenzo[d]thiazole]

IC50 (recombinant human NQO2; [2]): > 100 µM
melting point: 164 to 165 °C
Structure (SMILES): COc1cc(OC)cc(-c2nc3ccc(Br)cc3s2)c1 [Compound 4, 6-Bromo-2-(3,5-dimethoxyphenyl)benzo[d]thiazole]

IC50 (recombinant human NQO2; [2]): > 100 µM
melting point: 138 to 140 °C
Structure (SMILES): COc1cc(OC)cc(-c2nc3ccc(F)cc3s2)c1 [Compound 8, 2-(3,5-Dimethoxyphenyl)-6-fluorobenzo[d]thiazole]

IC50 (recombinant human NQO2; [2]): 2.46 ± 0.01 µM
melting point: 150 to 152 °C
Structure (SMILES): COc1cc(OC)cc(-c2nc3ccc(I)cc3s2)c1 [Compound 9, 2-(3,5-Dimethoxyphenyl)-6-iodobenzo[d]thiazole]

IC50 (recombinant human NQO2; [1]): 0.863 µM
IC50 (recombinant human NQO2; [2]): 0.863 ± 0.07 µM
Structure (SMILES): COc1cc(OC)cc(-c2nc3ccc(N)cc3s2)c1 [Compound 11, 2-(3,5-Dimethoxyphenyl)benzo[d]thiazol-6-amine]

IC50 (recombinant human NQO2; [2]): 5.86 ± 0.07 µM
melting point: 150 to 151 °C
Structure (SMILES): COc1ccc(-c2nc3ccc(OC)cc3s2)c(OC)c1 [Compound 16, 2-(2,4-Dimethoxyphenyl)-6-methoxybenzo[d]thiazole]

IC50 (recombinant human NQO2; [1]): 56.9 µM
IC50 (recombinant human NQO2; [2]): 56.9 ± 0.02 µM
melting point: 148 to 149 °C
Structure (SMILES): COc1ccc(-c2nc3ccc(Br)cc3s2)c(OC)c1 [Compound 17, 6-Bromo-2-(2,4-dimethoxyphenyl)benzo[d]thiazole]

IC50 (recombinant human NQO2; [1]): 0.846 µM
IC50 (recombinant human NQO2; [2]): 0.846 ± 0.02 µM
Structure (SMILES): COc1ccc(OC)c(-c2nc3ccc(OC)cc3s2)c1 [Compound 24, 2-(2,5-Dimethoxyphenyl)-6-methoxybenzo[d]thiazole]

IC50 (recombinant human NQO2; [2]): 6.71 ± 0.02 µM
melting point: 135 to 137 °C
Structure (SMILES): COc1ccc(OC)c(-c2nc3ccc(Br)cc3s2)c1 [Compound 25, 6-Bromo-2-(2,5-dimethoxyphenyl)benzo[d]thiazole]

IC50 (recombinant human NQO2; [1]): 1.27 µM
IC50 (recombinant human NQO2; [2]): 1.27 ± 0.03 µM
reduction in potency relative to compound 40 (recombinant human NQO2): 20 fold
Structure (SMILES): COc1ccc2nc(-c3ccc(OC)c(OC)c3)sc2c1 [Compound 32, 2-(3,4-Dimethoxyphenyl)-6-methoxybenzo[d]thiazole]

IC50 (recombinant human NQO2; [1]): 9.09 µM
IC50 (recombinant human NQO2; [2]): 9.09 ± 0.04 µM
melting point: 165 to 168 °C
Structure (SMILES): COc1ccc(-c2nc3ccc(Br)cc3s2)cc1OC [Compound 33, 6-Bromo-2-(3,4-dimethoxyphenyl)benzo[d]thiazole]

IC50 (recombinant human NQO2; [2]): > 100 µM
Structure (SMILES): COc1ccc(-c2nc3ccc(C(F)(F)F)cc3s2)cc1OC [Compound 34, 2-(3,4-Dimethoxyphenyl)-6-(trifluoromethyl)benzo[d]thiazole]

IC50 (recombinant human NQO2; [1]): 91.7 µM
IC50 (recombinant human NQO2; [2]): 91.67 ± 0.08 µM
Structure (SMILES): COc1ccc(-c2nc3ccc(Cl)cc3s2)cc1OC [Compound 35, 6-Chloro-2-(3,4-dimethoxyphenyl)benzo[d]thiazole]

IC50 (recombinant human NQO2; [2]): > 100 µM
Structure (SMILES): COc1ccc(-c2nc3ccc(C#N)cc3s2)cc1OC [Compound 36, 2-(3,4-Dimethoxyphenyl)benzo[d]thiazole-6-carbonitrile]

IC50 (recombinant human NQO2; [1]): 5.93 µM
IC50 (recombinant human NQO2; [2]): 5.93 ± 0.05 µM
Structure (SMILES): COc1ccc(-c2nc3ccc(F)cc3s2)cc1OC [Compound 37, 2-(3,4-Dimethoxyphenyl)-6-fluorobenzo[d]thiazole]

IC50 (recombinant human NQO2; [1]): 22.9 µM
IC50 (recombinant human NQO2; [2]): 22.94 ± 0.02 µM
Structure (SMILES): COc1ccc(-c2nc3ccc(I)cc3s2)cc1OC [Compound 38, 2-(3,4-Dimethoxyphenyl)-6-iodobenzo[d]thiazole]

IC50 (recombinant human NQO2; [2]): 63.28 ± 0.02 µM
melting point: 221 to 222 °C
Structure (SMILES): COc1ccc(-c2nc3ccc([N+](=O)[O-])cc3s2)cc1OC [Compound 39, 2-(3,4-Dimethoxyphenyl)-6-nitrobenzo[d]thiazole]

IC50 (recombinant human NQO2; [1]): 0.051 µM
IC50 (recombinant human NQO2; [2]): 0.051 ± 0.02 µM
Structure (SMILES): COc1ccc2nc(-c3cc(OC)c(OC)c(OC)c3)sc2c1 [Compound 40, 6-Methoxy-2-(3,4,5-trimethoxyphenyl)benzo[d]thiazole]

IC50 (recombinant human NQO2; [2]): 0.193 ± 0.003 µM
melting point: 171 to 172 °C
Structure (SMILES): COc1cc(-c2nc3ccc(Br)cc3s2)cc(OC)c1OC [Compound 41, 6-Bromo-2-(3,4,5-trimethoxyphenyl)benzo[d]thiazole]

IC50 (recombinant human NQO2; [1]): 18.4 µM
IC50 (recombinant human NQO2; [2]): 18.36 ± 0.03 µM
Structure (SMILES): COc1cc(-c2nc3ccc(C(F)(F)F)cc3s2)cc(OC)c1OC [Compound 42, 6-(Trifluoromethyl)-2-(3,4,5-trimethoxyphenyl)benzo[d]thiazole]

IC50 (recombinant human NQO2; [2]): 0.106 ± 0.004 µM
Structure (SMILES): COc1cc(-c2nc3ccc(I)cc3s2)cc(OC)c1OC [Compound 46, 6-Iodo-2-(3,4,5-trimethoxyphenyl)benzo[d]thiazole]
